Measurements reported in BindingDB's records for doi:10.1046/j.1471-4159.1996.67010145.x (Mcgill University, 1996).
pKi: −log10 of the molar value. Where “and” joins values, the source holds several entries; their conditions need not be identical. Identical values can stand only once.

Molecular target: T1, Alpha-bungarotoxin (Bungarus multicinctus, UniProt P60615)
T1 sequence (P60615 whole entry): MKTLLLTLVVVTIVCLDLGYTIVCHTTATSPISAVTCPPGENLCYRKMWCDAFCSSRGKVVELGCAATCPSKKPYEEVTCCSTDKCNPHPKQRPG

Structure (SMILES) | pKi
C[N+](C)(C)CCOC(N)=O [(2-Hydroxyethyl)trimethyl ammonium chloride carbamate] | 5.03
C[N+]1(C)CCN(c2ccccc2)CC1 [DMPP] | 6.17
CC[N+](CC)(CC)CC | < 5.00
C=C(C=O)C[C@H]1C[C@H](O)[C@]2(C)O[C@@H]3C[C@@H]4O[C@@H]5C[C@]6(C)O[C@]7(C)CC[C@@H]8O[C@@H]9C[C@]%10(C)O[C@@H]%11C(C)=CC(=O)O[C@H]%11C[C@H]%10O[C@H]9C[C@@H](C)[C@H]8O[C@H]7C[C@H]6O[C@@]5(C)C/C=C\[C@H]4O[C@H]3C[C@H]2O1 | 9.46 and 9.64
C[N+](C)(C)C | 5.62
COc1cc2c3cc1Oc1cc(ccc1O)C[C@H]1c4c(cc(OC)c(O)c4Oc4ccc(cc4)C[C@@H]3N(C)CC2)CC[N+]1(C)C [CAS_57-94-3] | 5.25
O=c1cccc2n1C[C@H]1CNC[C@H]2C1 [(1S,9R)-7,11-diazatricyclo[7.3.1.0~2,7~]trideca-2,4-dien-6-one] | 5.74
CCN1C[C@]2(COC(=O)c3ccccc3-n3c(O)cc(C)c3O)CC[C@H](OC)[C@]34C5C[C@@H]6[C@@H](OC)C[C@@](O)(C5[C@H]6OC)[C@@](O)(C13)[C@@H](OC)C24 (stereo partly drawn) [[(1S,4S,5R,6S,8R,9R,13S,16S,18S)-11-ethyl-8,9-dihydroxy-4,6,16,18-tetramethoxy-11-azahexacyclo[7.7.2.1^{2,5}.0^{1,10}.0^{3,8}.0^{13,17}]nonadecan-13-yl]methyl 2-[(3S)-3-methyl-2,5-dioxopyrrolidin-1-yl]benzoate] | 8.10 and 8.51
CN1CCC[C@H]1c1cccnc1 [(R,S)-nicotine] | 5.77 and 6.05
